Data published in patent publication US8614064B2, “Methods of diagnosing atherosclerosis by measuring ApoCI” (The Johns Hopkins University, priority 2003, dated 2013).

How the values were obtained:
acid sphingomyelinase = target: T1, acid sphingomyelinase (Homo sapiens, UniProt P17405); assay: Acid sphingomyelinase activity in cultured human ASMC (specificity of GW4869); assay type: cell-based; details: with GW4869; control 400 nmol/mg protein; did not alter
T1 construct: acid sphingomyelinase activity (control: 400 nmol/mg protein; GW4869: 340 nmol/mg protein) in cultured human ASMC; host or cells: cultured human ASMC
T1 sequence (P17405 47-631): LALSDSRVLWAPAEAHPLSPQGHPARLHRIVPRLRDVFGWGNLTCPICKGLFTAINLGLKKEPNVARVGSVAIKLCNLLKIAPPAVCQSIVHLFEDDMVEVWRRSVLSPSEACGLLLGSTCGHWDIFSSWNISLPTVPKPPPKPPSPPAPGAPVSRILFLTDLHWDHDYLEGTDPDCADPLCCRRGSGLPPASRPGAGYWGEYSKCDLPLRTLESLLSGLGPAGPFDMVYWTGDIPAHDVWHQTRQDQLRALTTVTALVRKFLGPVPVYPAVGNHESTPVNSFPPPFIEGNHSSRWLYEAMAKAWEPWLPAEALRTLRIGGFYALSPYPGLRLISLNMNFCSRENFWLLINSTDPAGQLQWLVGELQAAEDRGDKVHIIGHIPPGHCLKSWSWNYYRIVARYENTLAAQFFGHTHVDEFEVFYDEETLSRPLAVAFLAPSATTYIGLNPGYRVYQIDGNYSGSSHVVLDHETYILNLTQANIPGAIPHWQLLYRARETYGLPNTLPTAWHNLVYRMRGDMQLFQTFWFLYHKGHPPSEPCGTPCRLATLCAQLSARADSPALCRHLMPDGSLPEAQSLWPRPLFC

cytochrome c = assay: Immunofluorescence of cytochrome c in human cultured aortic smooth muscle cells; assay type: cell-based; details: 24 h
Description: FIGS. 5A-5C depict the effect of ApoCI, ApoCIII, ApoCI-enriched HDL, and GW4869 on cytochrome c release in ASMC. After treatment of confluent cells for 24 hours with ApoCI (2.5 μg/mL medium), ApoCIII (2.5 μg/mL medium), or ApoCI-enriched HDL (1 μg apoA-I/mL medium), the cells were lysed. The cell lysate was used as the source of cytochrome c, and the pellet was used as a source of caspase-3. The cell lysates were separated by SDS-polyacrylamide gel electrophoresis, blotted onto nitrocellulose, and cytochrome c detected using a polyclonal antibody against cytochrome c (FIG. 5A, top panel). The gels were then subjected to densitometric scanning (FIG. 5B, middle panel). In a separate experiment (FIG. 5C, right), confluent cells were grown on cover slips and pretreated with serum-free medium for 30 minutes. The cells were then incubated with control medium, ApoCI (2.5 μg/mL medium), TNF-α (20 ng/mL), or ApoCI (2.5 μg/mL)+GW4869 (20 μmol/L) for 24 hours. The cells were then washed, treated with a primary anti-cytochrome c antibody, washed with phosphate-buffered saline, and treated with a fluorescein isothiocyanate-conjugated anti-rabbit IgG (FIG. 5C, lower panel).
AOSMC (5×10^3) were grown on cover slips to confluence and pretreated with serum free medium for 30 min as described above. […]

SR-BI = assay: Western measurement of scavenger receptor BI level in AoSMC; assay type: cell-based, human; details: ApoCI-treated cells
Description: Confluent cultures of AoSMC were preincubated with serum-free medium for 30 min and then treated with ApoCI (2.5 μg/ml medium), HMS (58.8 μg apoA-I/ml medium and 6.2 μg ApoCI/ml medium), and C2-Ceramide (30 μM). At indicated time periods cells were harvested in PBS and pellets lysed in 10 mM HEPES buffer (pH 7.4) 5 mM EDTA, 0.25 mM EGTA, 50 mM NaF, 0.35 M sucrose, 0.1% Nonidet P-40 and protease inhibitors 2 μg/ml aprotinin, 10 μg/ml leupeptin, 5 μg/ml pepstatin, and 1 mM PMSF. Protein concentration was determined using BCA-kit (Pierce, Rockford, Ill.). 100 μg of protein was subjected to electrophoresis in denaturing conditions on 4-15% polyacrylamide gel and electro transferred onto nitrocellulose (BioRad, Rochester, N.Y.). After the transfer, membranes were blocked for 1 h at room temperature in TBS-T/5% milk. Western assay was performed using rabbit caveolin-I (1:1000), SR-BI (1:5000) or goat ABCA1 (1:1000) primary antibody (Santa Cruz Biotechnology, Santa Cruz, Calif.) and horseradish peroxidase-conjugated anti-rabbit or anti-goat antibody (Amersham Pharmacia Biotech, Piscataway, N.J.). Blots were developed using ECL^plus Western blotting detection reagents (Amersham Pharmacia Biotech) and were scanned by laser densitometry. The intensity of the signals were quantified with the ImageGuant program (Molecular Dynamic, Sunnyvale, Calif.).

Src kinase = assay: Analysis of p53/p56 Lyn (Src) kinase expression in AoSMC; assay type: cell-based, human; details: ApoCI-treated cells
Description: Confluent cultures of AoSMC were incubated with ApoCI (2.5 μg/ml medium), ApoCIII (2.5 μg/ml medium), ApoCI-enriched HDL (1 μg apoA-I/ml medium), or […] (5 μg apoA-I/ml medium). Cells were harvested in PBS at various time intervals and stored frozen in the presence of the protease inhibitor cocktail above. Western analysis for p53/p56 Lyn kinase was performed using primary anti-Lyn p53/p56 antibody (1:300) (Santa Cruz Biotechnology) and chemiluminescence (Amersham Pharmacia Biotech, Piscataway, N.J.).

[1] = target: T2, lecithin cholesterol acyl transferase (Homo sapiens, UniProt P04180); details: % of that of apoA-I; Soutar et al. 1975; cited from earlier work
T2 sequence (P04180 25-440): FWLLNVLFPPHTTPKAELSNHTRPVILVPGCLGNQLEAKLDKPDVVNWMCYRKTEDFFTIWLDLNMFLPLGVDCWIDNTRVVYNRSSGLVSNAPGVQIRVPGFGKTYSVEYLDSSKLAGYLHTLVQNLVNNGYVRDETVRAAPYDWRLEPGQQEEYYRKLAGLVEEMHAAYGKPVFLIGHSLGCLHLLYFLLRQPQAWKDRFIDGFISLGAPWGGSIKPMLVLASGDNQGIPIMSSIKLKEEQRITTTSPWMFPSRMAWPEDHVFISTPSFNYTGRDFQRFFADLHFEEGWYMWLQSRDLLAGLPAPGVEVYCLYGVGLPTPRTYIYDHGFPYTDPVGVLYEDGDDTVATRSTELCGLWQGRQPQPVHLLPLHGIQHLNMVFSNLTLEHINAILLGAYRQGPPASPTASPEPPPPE

Question: Which acid sphingomyelinase activity (acid sphingomyelinase) does the source give for `O=C(/C=C/c1ccc(/C=C/C(=O)Nc2ccc(C3=NCCN3)cc2)cc1)Nc1ccc(C2=NCCN2)cc1` [GW4869] here?
Answer: 340 nmol/mg protein

Question: What about the “effect of GW4869 on ApoCI-induced cytochrome c release (immunofluorescence)” value (cytochrome c; ApoCI 2.5 μg/mL + GW4869 20 μmol/L) of the same molecule?
Answer: inhibited

Question: Which “release of cytochrome c from mitochondria into the cytoplasm (immunofluorescence)” value (cytochrome c; ApoCI 2.5 μg/mL) does the source give for “Apolipoprotein C-I (TPDVSSALDKLKEFGNTLEDKARELISRIKQSELSAKMREWFSETFQKVKEKLKIDS; UniProt P02654 27-83, looked up) [ApoCI, 6.6-kDa single-chain plasma protein of 57 amino acids; purified human ApoCI purchased from Academy Bio-Medical Company]” here?
Answer: marked increase

Question: What about the “cellular level of the scavenger receptor binding protein (SR-BI)” value (SR-BI) of the same molecule?
Answer: transiently and significantly decreased

Question: And the “effect on Src kinase” value (Src kinase)?
Answer: stimulated

Question: And the “stimulation of lecithin cholesterol acyl transferase relative to apolipoprotein A-I” value [1]?
Answer: ~80%
